Reference: patent US20070249590A1, “Substituted indolo[2,3-a]pyrrolo[3,4-c]carbazole compounds useful in treating kinase disorders” (priority 2005, published 2007)
pIC50: −log10 of the molar value.

These compounds were tested against T1, JAK3 (JH1 and JH2 domain) (Homo sapiens, UniProt P52333) (assay: JAK3 Kinase Assay (ELISA of peptide substrate phosphorylation)). Settings: purified JAK3 enzyme, 10 μM ATP, biotinylated peptide substrate, 1 hour at room temperature.
T1 sequence (P52333 521-1111 limits assumed): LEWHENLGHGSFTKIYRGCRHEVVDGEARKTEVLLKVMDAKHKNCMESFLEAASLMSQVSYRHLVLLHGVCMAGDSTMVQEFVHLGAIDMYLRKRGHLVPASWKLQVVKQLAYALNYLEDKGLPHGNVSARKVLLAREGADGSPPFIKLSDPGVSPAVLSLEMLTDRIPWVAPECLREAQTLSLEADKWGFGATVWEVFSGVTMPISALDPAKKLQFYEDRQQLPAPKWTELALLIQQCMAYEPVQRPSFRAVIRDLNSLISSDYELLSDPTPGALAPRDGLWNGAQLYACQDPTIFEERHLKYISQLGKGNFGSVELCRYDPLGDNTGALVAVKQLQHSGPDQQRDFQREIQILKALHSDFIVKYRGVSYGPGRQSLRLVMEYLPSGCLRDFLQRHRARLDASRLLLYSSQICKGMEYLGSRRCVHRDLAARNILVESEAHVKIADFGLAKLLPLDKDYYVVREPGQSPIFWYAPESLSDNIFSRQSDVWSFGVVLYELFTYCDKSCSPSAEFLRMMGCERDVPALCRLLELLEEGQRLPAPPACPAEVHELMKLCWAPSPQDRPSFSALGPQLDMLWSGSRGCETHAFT
Assay type: biochemical
Method: JAK3 enzyme activity was assayed relative to enzyme phosphorylation using the method described herein.
Sf21 cells derived from the ovarian tissue of the fall armyworm Spodotera frugiperda were obtained from Pharmingen (San Diego, Calif.) and maintained at a temperature of about 26-28° C. in 1 l Bellco spinner flasks at 60-90 rpm. Cell viability was maintained at 95-100%, as determined by a tryptan blue dye exclusion test.
Sf21 cells were infected with a baculovirus expression vector for JAK3 (JH1 and JH2 domain). After 48 hours of infection, cells were harvested and lysed in Tris-saline (pH 7.6) containing 2% NP-40 and a combination of protease inhibitors (Aprotinin, Pepstatin A, Pefabloc, E-64, Leupeptin, and Benzamidine) on ice for 45 minutes.
The JAK3 enzyme was purified from the lysate using glutathione sepharose beads and the enzyme activity was assessed in Costar flat bottom EIA/RIA 96 well plates. The plates were coated with Neutravidin (110 μL) (Pierce Neutravidin Biotin-binding Protein 31000; 1 mg/mL 1:100) diluted in PBS for 1 hour at room temperature. The plates were washed with PBS-0.1% Tween (3 times) to remove unbound Neutravidin, then 1% BSA (150 NIL) in PBS was added to each well to block non-specific binding. The plates was incubated for 1 hour at room temperature and stored at −80° C. until use.
JAK3 enzyme solution (48 μL) in 1.25×TK buffer (62.5 mM HEPES pH 7.5, 12.5 mM MgCl2) containing DTT (42 mM) (Sigma, St. Louis, Mo.) was added to each well of a polypropylene 96 well plate.
A test compound (5 μL) diluted in DMSO (48 μL) and biotinylated peptide enzyme substrate (5 μg diluted in TK buffer containing 10 μM ATP) were added to each well using the double dispense feature of a multichannel electronic biohit. Control wells received DMSO vehicle (5 μL). The contents of the wells were mixed for approximately 8 seconds using a multitube vortexer and the reaction mixture was incubated for 1 hour at room temperature.
After incubation, an aliquot of reaction mixture (90 μL) was transferred into a washed Neutravidin coated plate. The plate was incubated for 15 minutes at room temperature and washed 3 times with PBS-T. PY99 anti-phosphotyrosine antibody (100 μL/well) (Santa Cruz #sc-7020HRP diluted 1:6000 in 1× antibody buffer) was added into each well and the plate was incubated for 40 minutes at room temperature. The antibody buffer contained 10% BSA, 100 mM Tris (pH 7.5), 1M NaCl and 1% Tween 20. The plate washed 3 times with PBS-T, then TMB (100 pLXSigma, St. Louis, Mo.) was added to the each well. The plate was incubated for another 40 mins at room temperature in the dark. The reaction was stopped by the addition of 1M H2SO4 (50 μL/well) and the optical density was read at 450/650 nm.
Test compounds were assayed in triplicate at 16 concentrations at half-log dilutions starting at 200 μM. A maximum and minimum signal for the assay was determined on each plate. The percent inhibition of a test compound was calculated according to the formula [formula]
For a series of test concentrations, the IC50 was derived by graphing percent inhibition against the log of the concentrations tested for a given compound. For those compounds without an IC50, the percent inhibition results are shown at a test concentration of 1 μM.

SMILES	pIC50
O=C(NCCCN1CCOCC1)OC1CCn2c3ccccc3c3c4c(c5c6ccccc6n(c5c32)C1)C(=O)NC4=O (centres unmarked) [Cpd 42, 12,13-{2-[(3-morpholin-4-yl-prop-1-yl)carbamoyloxy]-butan-1,4-yl}-12,13-dihydro-5,7-dioxo-6H-indolo[2,3-a]pyrrolo[3,4-c]carbazole]	6.83
CN1CCN(CCCNC(=O)OC2CCn3c4ccccc4c4c5c(c6c7ccccc7n(c6c43)C2)C(=O)NC5=O)CC1 (centres unmarked) [Cpd 43, 12,13-(2-{[3-(4-methyl-piperazin-1-yl)prop-1-yl]carbamoyloxy}-butan-1,4-yl)-12,13-dihydro-5,7-dioxo-6H-indolo[2,3-a]pyrrolo[3,4-c]carbazole]	6.95
O=C1NC(=O)c2c1c1c3ccccc3n3c1c1c2c2ccccc2n1CC(OC(=O)N1CCN(Cc2ccccc2)CC1)CC3 (centres unmarked) [Cpd 44, 12,13-{2-[(4-benzyl-piperazin-1-yl)carbonyloxy]-butan-1,4-yl}-12,13-dihydro-5,7-dioxo-6H-indolo[2,3-a]pyrrolo[3,4-c]carbazole]	6.91
Cc1ccc(CNC(=O)OC2CCn3c4ccccc4c4c5c(c6c7ccccc7n(c6c43)C2)C(=O)NC5=O)cc1 (centres unmarked) [Cpd 45, 12,13-{2-[(4-methyl-benzyl)carbamoyloxy]-butan-1,4-yl}-12,13-dihydro-5,7-dioxo-6H-indolo[2,3-a]pyrrolo[3,4-c]carbazole]	7.21
O=C(NCc1ccc2c(c1)OCO2)OC1CCn2c3ccccc3c3c4c(c5c6ccccc6n(c5c32)C1)C(=O)NC4=O (centres unmarked) [Cpd 46, 12,13-{2-[(benzo[1,3]dioxol-5-yl-methyl)carbamoyloxy]-butan-1,4-yl}-12,13-dihydro-5,7-dioxo-6H-indolo[2,3-a]pyrrolo[3,4-c]carbazole]	7.18
O=C(NCc1ccncc1)OC1CCn2c3ccccc3c3c4c(c5c6ccccc6n(c5c32)C1)C(=O)NC4=O (centres unmarked) [Cpd 47, 12,13-{2-[(pyridin-4-yl-methyl)carbamoyloxy]-butan-1,4-yl}-12,13-dihydro-5,7-dioxo-6H-indolo[2,3-a]pyrrolo[3,4-c]carbazole]	7.52
Cc1ccc(CNC(=O)OC2CCn3c4ccccc4c4c5c(c6c7ccccc7n(c6c43)C2)C(=O)NC5=O)o1 (centres unmarked) [Cpd 48, 12,13-(2-{[(5-methyl-furan-2-yl)methyl]carbamoyloxy}-butan-1,4-yl)-12,13-dihydro-5,7-dioxo-6H-indolo[2,3-a]pyrrolo[3,4-c]carbazole]	7.96
COc1ccc(CCNC(=O)OC2CCn3c4ccccc4c4c5c(c6c7ccccc7n(c6c43)C2)C(=O)NC5=O)cc1OC (centres unmarked) [Cpd 49, 12,13-(2-{[2-(3,4-dimethoxy-phenyl)ethyl]carbamoyloxy}-butan-1,4-yl)-12,13-dihydro-5,7-dioxo-6H-indolo[2,3-a]pyrrolo[3,4-c]carbazole]	7.41
CN(C)CCNC(=O)OC1CCn2c3ccccc3c3c4c(c5c6ccccc6n(c5c32)C1)C(=O)NC4=O (centres unmarked) [Cpd 50, 12,13-{2-[(2-dimethylamino-ethyl)carbamoyloxy]-butan-1,4-yl}-12,13-dihydro-5,7-dioxo-6H-indolo[2,3-a]pyrrolo[3,4-c]carbazole]	7.51
CN1CCN(C(=O)OC2CCn3c4ccccc4c4c5c(c6c7ccccc7n(c6c43)C2)C(=O)NC5=O)CC1 (centres unmarked) [Cpd 51, 12,13-{2-[(4-methyl-piperazin-1-yl)carbonyloxy]-butan-1,4-yl}-12,13-dihydro-5,7-dioxo-6H-indolo[2,3-a]pyrrolo[3,4-c]carbazole]	< 6.40
O=C1NC(=O)c2c1c1c3ccccc3n3c1c1c2c2ccccc2n1CC(OC(=O)N1CCCC1CN1CCCC1)CC3 (centres unmarked) [Cpd 52, 12,13-(2-{[2-(pyrrolidin-1-yl-methyl)pyrrolidin-1-yl]carbonyloxy}-butan-1,4-yl)-12,13-dihydro-5,7-dioxo-6H-indolo[2,3-a]pyrrolo[3,4-c]carbazole]	6.35
O=C1NC(=O)c2c1c1c3ccccc3n3c1c1c2c2ccccc2n1CC(OC(=O)N1CCC(C2CCCCC2)CC1)CC3 (centres unmarked) [Cpd 53, 12,13-{2-[(4-cyclohexyl-piperazin-1-yl)carbonyloxy]-butan-1,4-yl}-12,13-dihydro-5,7-dioxo-6H-indolo[2,3-a]pyrrolo[3,4-c]carbazole]	< 6.40
O=C1NC(=O)c2c1c1c3ccccc3n3c1c1c2c2ccccc2n1CC(OC(=O)N1CCN(Cc2ccc4c(c2)OCO4)CC1)CC3 (centres unmarked) [Cpd 54, 12,13-(2-{[4-(benzo[1,3]dioxol-5-yl-methyl)piperazin-1-yl]carbonyloxy}-butan-1,4-yl)-12,13-dihydro-5,7-dioxo-6H-indolo[2,3-a]pyrrolo[3,4-c]carbazole]	6.00
O=C1NC(=O)c2c1c1c3ccccc3n3c1c1c2c2ccccc2n1CC(OC(=O)N1CCN(c2ccncc2)CC1)CC3 (centres unmarked) [Cpd 55, 12,13-{2-[(4-pyridin-4-yl-piperazin-1-yl)carbonyloxy]-butan-1,4-yl}-12,13-dihydro-5,7-dioxo-6H-indolo[2,3-a]pyrrolo[3,4-c]carbazole]	6.50
O=C1NC(=O)c2c1c1c3ccccc3n3c1c1c2c2ccccc2n1CC(OC(=O)N1CCN(CCN2CCOCC2)CC1)CC3 (centres unmarked) [Cpd 56, 12,13-(2-{[4-(2-morpholin-4-yl-ethyl)piperazin-1-yl]carbonyloxy}-butan-1,4-yl)-12,13-dihydro-5,7-dioxo-6H-indolo[2,3-a]pyrrolo[3,4-c]carbazole]	6.94
O=C1NC(=O)c2c1c1c3ccccc3n3c1c1c2c2ccccc2n1CC(OC(=O)N1CCN(CCN2CCCC2=O)CC1)CC3 (centres unmarked) [Cpd 57, 12,13-[2-({4-[2-(2-oxo-pyrrolidin-1-yl)ethyl]piperazin-1-yl}carbonyloxy)-butan-1,4-yl]-12,13-dihydro-5,7-dioxo-6H-indolo[2,3-a]pyrrolo[3,4-c]carbazole]	7.39
O=C1NC(=O)c2c1c1c3ccccc3n3c1c1c2c2ccccc2n1CC(OC(=O)N1CCN(c2ccc(O)cc2)CC1)CC3 (centres unmarked) [Cpd 58, 12,13-(2-{[4-(4-hydroxy-phenyl)piperazin-1-yl]carbonyloxy}-butan-1,4-yl)-12,13-dihydro-5,7-dioxo-6H-indolo[2,3-a]pyrrolo[3,4-c]carbazole]	7.01
CC(=O)c1ccc(N2CCN(C(=O)OC3CCn4c5ccccc5c5c6c(c7c8ccccc8n(c7c54)C3)C(=O)NC6=O)CC2)cc1 (centres unmarked) [Cpd 59, 12,13-(2-{[4-(4-methylcarbonyl-phenyl)piperazin-1-yl]carbonyloxy}-butan-1,4-yl)-12,13-dihydro-5,7-dioxo-6H-indolo[2,3-a]pyrrolo[3,4-c]carbazole]	6.26
O=C1NC(=O)c2c1c1c3ccccc3n3c1c1c2c2ccccc2n1CC(OC(=O)N1CCCNCC1)CC3 (centres unmarked) [Cpd 60, 12,13-{2-[(hexahydro-1H-1,4-diazepin-1-yl)carbonyloxy]-butan-1,4-yl}-12,13-dihydro-5,7-dioxo-6H-indolo[2,3-a]pyrrolo[3,4-c]carbazole]	6.81
CN(C(=O)OC1CCn2c3ccccc3c3c4c(c5c6ccccc6n(c5c32)C1)C(=O)NC4=O)C1CCN(Cc2ccccc2)C1 (centres unmarked) [Cpd 61, 12,13-{2-[N-methyl-N-(1-benzyl-pyrrolidin-3-yl)carbamoyloxy]-butan-1,4-yl}-12,13-dihydro-5,7-dioxo-6H-indolo[2,3-a]pyrrolo[3,4-c]carbazole]	6.27
